Test [1] concerns S. Typhimurium ATCC14028. The test can be described thus: Bioscreen assay: influence on planktonic growth curve. The test is classed as cell-based, Salmonella Typhimurium. Set-up: key: x: no influence on planktonic growth at the IC50 for biofilm inhibition; planktonic growth is retarded at the IC50 for biofilm inhibition. The note with it: planktonic growth at the IC50 for biofilm inhibition, 25° C. The source says: Some of the tested compounds show a concentration range in which biofilm formation is inhibited but no effect on planktonic growth is observed. These compounds are particularly interesting for prevention of biofilm formation since the development of resistance against these compounds is less likely. Table 8 indicates whether the different compounds have an effect on the planktonic growth of the bacteria at the IC50 for biofilm inhibition. To construct Table 8, the effect of the tested compounds on the growth curve of the bacteria was determined at a concentration equal to the IC50 for biofilm inhibition, by using the Bioscreen system available from Oy Growth Curves Ab Ltd). The Bioscreen device from Oy Growth Curves Ab Ltd was used for measuring the influence of the chemical compounds on the planktonic growth of Salmonella Typhimurium and Pseudomonas aeruginosa. The Bioscreen is a computer controlled incubator/reader/shaker that uses 10×10 well microtiter plates and measures light absorbance of each well at a specified wave length in function of time. An overnight culture of S. […] The broth used was TSB 1/20 for the experiments at 16° C. and 25° C. For experiments at 37° C. CFA medium was used for S. […] As a control 3 μl of the appropriate solvent (DMSO or EtOH) was also added to the plate in 3- or 4-fold. The microtiter plate was incubated in the Bioscreen device at 16° C., 25° C. or 37° C. for at least 36 hours, with continious medium shaking. The absorbance of each well was measured at 600 nm each 15 minutes. Excel was used to generate the growth curves for treated the treated wells and the untreated control wells. Some of the compounds show a concentration range in which biofilm formation is inhibited but no effect on the planktonic growth is observed. […] To construct this table the effect of the compounds on the growth curve of the bacteria was determined at a concentration equal to the IC50 for biofilm inhibtion, by using the Bioscreen system from Oy Growth Curves Ab Ltd.

Test [2] concerns S. Typhimurium ATCC14028. Description: Static peg assay for prevention of biofilm formation (Calgary device, crystal violet). The test is classed as cell-based, Salmonella Typhimurium. In short, it runs like this:
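Calgary 96-peg device, ca. 10^6 cells of ATCC14028 per well in TSB 1/20 for 24 h at 25° C (or 48 h at 16° C, medium and compound renewed at 24 h), or in CFA broth for 24 h at 37° C, static, with two-fold compound dilutions. Crystal violet stain, acetic acid extraction, OD570. IC50 from 2–3 independent experiments.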

In test [3] the test system is Salmonella Typhimurium ATCC 14028. Description: Antibacterial activity: growth inhibition, OD600 after 24 h (GIC50). The test is classed as cell-based. The note with it: 25° C. How it is done: Evaluation of antibacterial-inhibitory activity of some substituted 2-amino-1H-imidazoles of the invention was carried out by diluting an overnight culture of Salmonella Typhimurium ATCC 14028 into a liquid medium. 200 μl of the diluted overnight culture was added to each well of a microtiter plate together with different concentrations of the test compound (1/2 dilution series of the compound). After an incubation of 24 hours the optical density at 600 nm of each well was determined with a microtiter plate reader.
Starting from a 40 mM stock solution of each compound in DMSO, two-fold serial dilutions in 100 μl liquid broth per well were prepared in dublicate in sterile transparant microtiter plates. The broth used was TSB 1/20 for measurements at 25° C. and CFA (in case of Salmonella Typhimurium) and LBNS (in case of Pseudomonas aeruginosa) for measurements at 37° C. Subsequently an overnight culture of the bacteria (S. Typhimurium ATCC14028 or P. aeruginosa PA14) was diluted 1/200 into the corresponding liquid broth and 100 μl was added to each well of the microtiterplate resulting in a total amout of 200 μl medium per well. After an incubation of 24 hours the optical density at 600 nm of each well was determined with a microtiter plate reader (VERSAmax, Molecular Devices).
Evaluation of antibacterial-inhibitory activity of some substituted imidazo[1,2-a]pyrimidinium bromide salts of the invention was carried out by diluting an overnight culture of Salmonella Typhimurium ATCC14028 or Pseudomonas aeruginosa PA141/200 into liquid medium. 200 μl of the diluted overnight culture was added to each well of a microtiterplate together with different concentrations of the test compound (1/2 dilution series of the compound). After an incubation of 24 hours the optical density at 600 nm of each well was determined with a microtiter plate reader.

Test [4] concerns S. Typhimurium ATCC14028. The test can be described thus: Bioscreen assay: influence on planktonic growth curve. As to conditions: 400 μM. The test is classed as cell-based, Salmonella Typhimurium. The text has this: Some of the tested compounds show a concentration range in which biofilm formation is inhibited but no effect on planktonic growth is observed. These compounds are particularly interesting for prevention of biofilm formation since the development of resistance against these compounds is less likely. Table 8 indicates whether the different compounds have an effect on the planktonic growth of the bacteria at the IC50 for biofilm inhibition. To construct Table 8, the effect of the tested compounds on the growth curve of the bacteria was determined at a concentration equal to the IC50 for biofilm inhibition, by using the Bioscreen system available from Oy Growth Curves Ab Ltd). The Bioscreen device from Oy Growth Curves Ab Ltd was used for measuring the influence of the chemical compounds on the planktonic growth of Salmonella Typhimurium and Pseudomonas aeruginosa. The Bioscreen is a computer controlled incubator/reader/shaker that uses 10×10 well microtiter plates and measures light absorbance of each well at a specified wave length in function of time. An overnight culture of S. […] The broth used was TSB 1/20 for the experiments at 16° C. and 25° C. For experiments at 37° C. CFA medium was used for S. […] As a control 3 μl of the appropriate solvent (DMSO or EtOH) was also added to the plate in 3- or 4-fold. The microtiter plate was incubated in the Bioscreen device at 16° C., 25° C. or 37° C. for at least 36 hours, with continious medium shaking. The absorbance of each well was measured at 600 nm each 15 minutes. Excel was used to generate the growth curves for treated the treated wells and the untreated control wells. Some of the compounds show a concentration range in which biofilm formation is inhibited but no effect on the planktonic growth is observed. Table 14 indicates if the different compounds have an effect on the planktonic growth of the bacteria at the IC50 for biofilm inhibition. To construct this table the effect of the compounds on the growth curve of the bacteria was determined at a concentration equal to the IC50 for biofilm inhibtion, by using the Bioscreen system from Oy Growth Curves Ab Ltd.

Test [5] has as its system S. Typhimurium SL1344. Description: Static peg assay for prevention of biofilm formation (Calgary device, crystal violet). The test is classed as cell-based. As to conditions: Salmonella enterica, SL1344, 16° C., read-out: IC50 biofilm inhibition. Here is the method: After an incubation period of 24 hours at 25° C. or 37° C. or 48 hours at 16° C. the biofilms were visualized by crystal violet staining. […] Biofilm formation assays were carried out at 16° C., 25° C. and 37° C. […] Subsequently, an overnight culture of S. […] The pegged lid was placed on the microtiter plate and the plate was incubated for 48 hours at 16° C. or for 24 hours at 25° C. without shaking. During this incubation period biofilms were formed on the surface of the pegs. In case of the assay at 16° C., after 24 hours the lid was transferred into a new plate with medium and the specific molecules used for testing. […] The remaining attached bacteria were stained for 30 minutes with 200 μl 0.1% (w/v) crystal violet in an isopropanol/methanol/PBS solution (v/v 1:1:18). Excess stain was rinsed off by placing the pegs in a 96-well plate filled with 200 μl distilled water per well. After the pegs were air dried (30 min), the dye bound to the adherent cells was extracted with 30% glacial acetic acid (200 μl). The OD570 of each well was measured using the VERSAmax microtiter plate reader.

Test [6] has as its system S. Typhimurium ATCC14028. Description: Growth inhibition of planktonic cells in the peg assay plate (OD600). The note with it: Salmonella enterica, ATCC14028, 16° C. The test is classed as cell-based, Salmonella Typhimurium.
Test [7] has as its system S. Typhimurium SL1344. The test is described as above. The test is classed as cell-based. As to conditions: Salmonella enterica, SL1344, 16° C.
The mark [8] stands for this setting: Salmonella enterica, ATCC14028, 16° C., read-out: IC50 biofilm inhibition.

The text below walks through data of patent US20130029981A1, “COMPOUNDS, COMPOSITIONS, AND METHODS FOR CONTROLLING BIOFILMS” (Katholieke Universiteit Leuven, priority 2009, published 2013).

A word on the pIC50: it is the negative decadic logarithm of the IC50, by convention in mol/L.

pIC50: −log10 of the molar value.

For `OC1(c2ccc(F)cc2)C[n+]2cccnc2N1Cc1ccc2c(c1)OCO2.[Br-]` (stereo not drawn) [Compound 79], the Influence on growth result in the test on S. Typhimurium ATCC14028 [1] is recorded as “∘”. In addition, the pIC50 in the test with S. Typhimurium ATCC14028 [2] (25° C., Table 11, read-out: IC50 (biofilm formation)) was 4.53; in the test on S. Typhimurium ATCC14028 [2] (25° C., Table 14, read-out: IC50 biofilm inhibition) it was 4.53; in the test on S. Typhimurium ATCC14028 [2] (25° C., Table 19, read-out: IC50 (biofilm formation)) it was 4.76; in test [3] it was 3.70. For the same compound, the “Effect on growth at 400 μM” value in the test on S. Typhimurium ATCC14028 [4] was “∘”.

`O=[N+]([O-])c1cccc(C2(O)C[n+]3cccnc3N2C2CCCCCCCCCCC2)c1.[Br-]` (stereo not drawn) [R1=Cyclododecyl, R3=3-NO2Ph, R4=H, 1-cyclododecyl-2-hydroxy-2-(3-nitrophenyl)-2,3-dihydro-1H-imidazo[1,2-a]pyrimidin-4-ium bromide]: the Influence on growth entry with S. Typhimurium ATCC14028 [1] is recorded as “∘”. The pIC50 in the test with S. Typhimurium ATCC14028 [2] (Salmonella enterica, 25° C., Table 11, read-out: IC50 (biofilm formation)) was above 5.20; in the test with S. Typhimurium ATCC14028 [2] (Salmonella enterica, 25° C., Table 14, read-out: IC50 biofilm inhibition), above 5.20; in test [3] (Salmonella enterica), 4.92 to 5.22.

For the compound `c1ccc(Sc2cccc3ccccc23)c(CNC2=NCCN2)c1` [Specs3-4], the pIC50 in the test on S. Typhimurium SL1344 [5] was 4.81; with S. Typhimurium ATCC14028 [2] (setting [8]), 4.78; in the test on S. Typhimurium ATCC14028 [6] it was 4.08; in the test on S. Typhimurium SL1344 [7] it was 4.08.

Turning to `Fc1ccc(Sc2ccccc2CNC2=NCCN2)cc1` [Specs3], the negative logarithm of the IC50 (pIC50) is around 4.50 in the test on S. Typhimurium SL1344 [5], 4.66 in the test with S. Typhimurium ATCC14028 [2] (setting [8]), 3.55 with S. Typhimurium ATCC14028 [6] and 3.55 in the test with S. Typhimurium SL1344 [7].
